Consider 5 molecules from US9632090B2, “Compositions and methods for the identification, assessment, prevention and therapy of thymic lymphoma or hamartomatous tumours” (Dana-Farber Cancer Institute, Inc., priority 2007, dated 2017).

A short description of data set [1]: DMBA carcinogen treatment, survival and tumor development. The format is in vivo, mouse. The note with it: treated at day 7. On the procedure:
Littermate controls were analyzed for tumor-free survival. Animals were genotyped by PCR and allowed to age undisturbed in a maximum of 5 mice per cage with standard chow and water ad libitum in a standard light-day cycle. Mice were monitored three times a week and were sacrificed when moribund or if external tumors exceeded 2 cm in diameter and scored as a death in survival analysis. Those animals with cancer, as determined by histological analysis, were scored as an event in the tumor-free survival Kaplan-Meier analysis. For lung tumors, analysis of tumor load was carried out as done previously (Zhang et al., 2001).
Seven-day old pups were treated with 5% 7,12-dimethylbenz-alpha-anthracene (DMBA) in acetone by pipetting 50 μl onto the back, and allowing it to air-dry. Mice were monitored three times a week for signs of morbidity and underwent full autopsies for tumor detection.

The test system of another data set is thymocytes. Put plainly: Thymocyte apoptosis / cell viability (propidium iodide, flow cytometry). Type of data set: cell-based, mouse. The note with it: 1 μM, 18 hrs. On the procedure:
For analysis of thymocytes, fresh thymus was passed through a cell strainer (Becton Dickinson) in order to produce single cell suspensions for analysis and resuspended in RPMI-1640 media containing 10% fetal calf serum. For thymocyte proliferation assays, cells were seeded in 96-well plates at 1×10^5 cells per well and subjected to the following conditions: no mitogen, PMA (1 ng/ml)+ionomycin (50 ng/ml), and 3 μg/ml anti-CD3e (eBioscience)+100 U IL-2. Cells were grown for 48 hours, pulsed with 1 μCi [3H]-thymidine (Amersham) for the last 16 hours. Incorporated [3H]-thymidine was measured using the 1450 MicroBeta Trilux Scintillation and Luminescence Counter. For analysis of apoptosis, thymocytes were plated in 12-well plates (1×10^6 cells per well) and treated with 5 Gy gamma-irradiation or 1 μM dexamethasone for 18 hours. Cell viability was determined by staining the cells with propidium iodide and performing flow cytometric analysis.

The subject of a further data set is lung ECs. As to the kind of experiment: MTT viability assay, lung endothelial cells. Type of data set: cell-based, mouse. On the procedure:
(§1) 100 ng/ml FGF, or 10% FBS.
(Tetrazolium assays rely on reduction of a dye to a coloured formazan, in cell work by metabolically active cells.)

Data set [2] concerns liver ECs. Put plainly: MTT viability assay, liver endothelial cells. Type of data set: cell-based, mouse. The protocol: as §1
Data set [3] relates to liver ECs.
Procedure: Livers of Mx-Cre^+ or Mx-Cre^− mice injected with pI-pC 3 weeks prior were used for the isolation of liver ECs. Liver tissues were homogenized and digested in collagenase D and lysates were run through a cell strainer. ECs were enriched by taking the interphase of a 30% Histodenz (Sigma) and RPMI suspension of cells overlaid after spinning at 1500×g for 20 min. Cells were further affinity isolated by CD31-M450 prebound magnetic beads. […] VEGF and basic FGF were obtained from the Biological Resources Branch, NCI Preclinical Repository. Cells were grown in DMEM+0.5% BSA supplemented with 100 ng/ml VEGF. 100 ng/ml FGF, or 10% FBS. EC proliferation and apoptosis were measured with the BrdU labelling and detection kit (Roche) and the In situ cell death detection kit (Roche), respectively per the manufacturer's instruction. Viability of cells after various treatments was measured by MTT (2,3-bis-(2-methoxy-4-nitro-5-sulfophenyl)-2H-tetrazolium-5-carboxanilide) assays in 96 well plates. […] Vector (pLKO) alone and pLKO-GFP were used as controls to exclude non-specific responses. Cells were selected for 96 hrs with puromycin (1 μg/ml) and used for further assays.
The test system of another data set is VEGF. The note with it: intravitreal, proliferative diabetic retinopathy, short term therapy; cited from earlier work.
Chain of VEGF (P15692 207-311 limits assumed): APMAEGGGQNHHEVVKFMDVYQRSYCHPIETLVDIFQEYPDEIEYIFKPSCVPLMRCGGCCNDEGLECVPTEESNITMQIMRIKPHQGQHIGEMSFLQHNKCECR

Read-outs that look alike come from different tables or passages of the source.

With `Cc1c2ccccc2c(C)c2c1ccc1ccccc12` [DMBA, 7,12-dimethylbenz-alpha-anthracene], the figures for the median survival in data set [1] (FoxO4+/+ mice) and in data set [1] (FoxO4-/- mice) were 27.3 weeks and 23.4 weeks, respectively.

In the case of `C[C@@H]1C[C@H]2[C@@H]3CCC4=CC(=O)C=C[C@]4(C)[C@@]3(F)[C@@H](O)C[C@]2(C)[C@@]1(O)C(=O)CO` [dexamethasome, dexamethasone], the values for the survival in the data set on thymocytes (Mx-Cre+ thymocytes) and in the data set on thymocytes (Mx-Cre- thymocytes) were 69.3±0.7 % survival and 50.6±2.6 % survival, respectively.

Regarding “TGF-β1: cytokine known to induce EC cytostasis through Smad signalling”, in the data set with lung ECs (lung ECs irrespective of FoxO status), the sensitivity to stimulation result is “insensitive”. The survival upon exposure with liver ECs [2] (Mx-Cre- liver ECs (reduced survival)) was around 60%; in the data set on liver ECs [2] (liver ECs, much less sensitive), around 90%.

Regarding VEGF, the increase in viability in the data set on lung ECs (Mx-Cre+ lung ECs) turned out to be 47.2%; in the data set with lung ECs (Mx-Cre- lung ECs), 41.7%. Moreover, the “tube length (VEGF-induced tube formation)” value was 4123±318 μm with liver ECs [3] (Mx-Cre+ liver ECs) and 3229±285 μm in the data set on liver ECs [3] (Mx-Cre- liver ECs). In addition, the “increase in viability (proliferation upon stimulation)” value in the data set on liver ECs [2] (Mx-Cre+ liver ECs) was found to be 73.3%; in the data set on liver ECs [2] (Mx-Cre- liver ECs), 17.9%.

On to “bevacizumab: humanized anti-VEGF-A monoclonal antibody”, for which, in the data set with VEGF, the angiographic leaking entry was “complete resolution of angiographic leaking”.
